As a reminder, the IC50 is the midpoint of a concentration-inhibition curve. What is called Kd is the constant that tells how readily two partners part at equilibrium.

A short description of one series: in vivo. To be noted: mouse, Kpuu.
Series [1] is described as follows: Blood-brain-barrier permeability of study compounds in mice after PO administration. To be noted: mouse; for concentration at 1 h: po, T = 1 hour; for blood brain barrier penetration: conclusion in words; for Kp uu at 1 h: brain and plasma (unbound concentrations), oral, Kpuu, ratio of unbound brain to unbound plasma concentration.
Method: (§12) Separately, the fraction of compound bound to plasma protein or brain homogenate was measured to allow assessment of free fractions.
(§13) In practice, unbound fractions in plasma and brain tissue were assessed using rapid equilibrium dialysis in vitro. Separately a pharmacokinetic study was run in vivo whereby a dose of the compound of interest was given at T=0 hours and at subsequent timepoints (eg 0.5, 1 and 4 hours) plasma and separately brain samples were analysed for total concentration of the compound of interest. These total concentrations could then be adjusted with the unbound fraction to give the unbound concentrations in the plasma and brain. The unbound partition coefficient (Kpuu) was then determined as a ratio between the free compound concentrations in the compartment of interest, here the brain/CNS and the plasma.
(§14) The compound is administered to the animal in a suitable vehicle at T=0 hours. At one hour post administration plasma and separately brain are removed, prepared and analysed for total compound concentration.
(§15) Mouse brain samples were prepared for analysis by homogenization with Omni bead ruptor, using 4-fold volume of 150 mM phosphate buffered saline (PBS) (E.g. 400 uL PBS+100 mg brain). After homogenization, a 30 μL homogenate sample was mixed with 60 μL of internal standard solution (100 ng/ml of repaglinide and phenacetin in acetonitrile (ACN) containing 1% formic acid) and mixed. Samples were centrifuged for 20 minutes (4000 rpm, Thermo Scientific SL16) and 50 μl of supernatant, together with 100 μl of 50% acetonitrile was transferred on an analytical plate. Standard samples were prepared by spiking blank brain homogenate to obtain concentrations from 0.1 to 10 000 ng/ml in brain homogenate by using one volume of spiking solution and nine volumes of blank homogenate. Quality control (QC) samples were prepared for concentrations at 3, 30, 300 and 3000 ng/ml by using one volume of spiking solution and nine volumes of blank brain homogenate. The standards and QCs were then prepared for analysis similarly as the samples. Blank brain matrix was collected in-house from CD-1 mice.
(§16) The samples were prepared by mixing 30 μL of plasma sample with 60 μL of internal standard solution (100 ng/ml of repaglinide and phenacetin in ACN with 1% of formic acid) and mixed. Samples were centrifuged for 20 minutes (4000 rpm, Thermo Scientific SL16) and 50 μl of supernatant, together with 100 μl of 50% acetonitrile was transferred on analytical plate. 10 μl of diluted samples were transferred on analytical plate and further diluted with 190 μl of 50% acetonitrile. Standard samples were prepared by spiking blank plasma to obtain concentrations from 0.1 to 10 000 ng/ml in plasma by using one volume of spiking solution and nine volumes of blank plasma. Quality control (QC) samples were prepared for concentrations at 3, 30, 300 and 3000 ng/ml by using one volume of spiking solution and nine volumes of plasma. The standards and QCs were then prepared for analysis similarly as the samples. Blank plasma was collected in-house from CD-1 mice.
(§17) Instrumentation: Waters Acquity UPLC+Waters TQ-S triple quadrupole MS; Column: Waters Acquity HSS T3 (2.1×50 mm, 1.8 μm) column with pre-column filter; Gradient Elution; A=0.1% Formic acid, B=Acetonitrile
The target of a further series is h-Sortilin (Homo sapiens (Human), UniProt Q99523). In words: Neurotensin (NTS) scintillation proximity assay (SPA): displacement of [3H]-neurotensin binding. To be noted: 150 nM 6his-Sortilin, 5 nM [3H]-Neurotensin; average of at least 2 determinations. The method, boiled down: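 Scintillation proximity format measuring displacement of [3H]-neurotensin from human sortilin. IC50 by nonlinear variable-slope sigmoid regression, averaged over at least 2 determinations.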
Sequence of h-Sortilin (Q99523 78-831): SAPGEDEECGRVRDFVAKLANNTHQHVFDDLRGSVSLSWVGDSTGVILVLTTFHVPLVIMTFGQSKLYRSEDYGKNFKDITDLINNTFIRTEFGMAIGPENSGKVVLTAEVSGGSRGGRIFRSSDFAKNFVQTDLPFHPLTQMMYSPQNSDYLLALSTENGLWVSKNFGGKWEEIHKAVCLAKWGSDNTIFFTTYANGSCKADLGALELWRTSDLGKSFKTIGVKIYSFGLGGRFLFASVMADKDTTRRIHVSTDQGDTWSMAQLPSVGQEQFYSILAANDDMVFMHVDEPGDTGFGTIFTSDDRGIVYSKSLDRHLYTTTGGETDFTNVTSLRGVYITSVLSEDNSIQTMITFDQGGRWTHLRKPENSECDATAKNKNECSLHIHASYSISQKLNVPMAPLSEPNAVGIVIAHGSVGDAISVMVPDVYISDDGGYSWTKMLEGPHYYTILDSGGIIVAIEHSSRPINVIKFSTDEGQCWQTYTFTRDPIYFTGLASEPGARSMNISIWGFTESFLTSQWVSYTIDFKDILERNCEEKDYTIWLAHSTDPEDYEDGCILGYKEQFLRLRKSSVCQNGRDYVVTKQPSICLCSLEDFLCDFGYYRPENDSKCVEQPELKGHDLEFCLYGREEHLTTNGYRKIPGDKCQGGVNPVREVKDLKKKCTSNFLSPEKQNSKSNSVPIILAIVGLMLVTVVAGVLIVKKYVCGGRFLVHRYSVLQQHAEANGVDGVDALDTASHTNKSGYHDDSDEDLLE
Background: SPA uses beads or plates that emit light when radiolabelled molecules are held near them.

A short description of series [2]: Plasma protein binding by rapid equilibrium dialysis. It is filed as in vitro ADME. To be noted: 37° C.; for Mouse Plasma Unbound (Fu, %): CD1-mouse plasma, 5 μM, 4 hours; for fraction unbound at 4 h, 5 μM: pH 7.4, CD1-mouse plasma, read-out: Mouse Plasma Unbound (Fu, %). As for the experimental part: (§1) Rapid Equilibrium Dialysis The test compounds were incubated in CD1-mouse plasma and brain homogenate at 37° C. in RED device with inserts (8K MWCO, Thermo scientific) for 4 hours at 5 μM in triplicates. 350 μL of 150 mM phosphate buffered saline (PBS, pH 7.4) was used as the receiver side solutions. The samples were collected from both sides after 4 hours equilibration time and their matrices were made similar by diluting the donor side sample using blank PBS, and by diluting the receiver side sample using blank plasma/phosphate buffered saline. After the incubation, aliquots of donor side matrixes were diluted with an equal volume of the blank receiver side matrix and aliquots of receiver side matrixes were diluted with an equal volume of blank donor side matrix. All samples were protein precipitated by addition of a two-fold volume of acetonitrile containing 100 nM of repaglinide as an internal standard. After 10-minute centrifugation at 13 200 rpm, the sample supernatants were analysed with an LC-MS/MS, to obtain the unbound fraction of the test compound (Fub). The unbound fraction was calculated from the peak area ratios obtained for each matrix: […]
where CPBS and Cplasma are the analyte concentrations in PBS (receiver) and plasma (donor), respectively.
(§2) Recovery samples were prepared in each condition but without dialysis, and were used for evaluation of recovery from the dialysis experiment using following formula: […]
(§3) where VPBS is the volume on the receiver side (PBS) and Vplasma is the volume on donor side (plasma) of the dialysis device. Crecovery is the analyte concentration measured from the recovery sample.
(§4) Propranolol (1 μM) and fluoxetine (5 μM) were included in the experiment as a control compounds.
Background: In equilibrium dialysis only unbound substance equilibrates across the membrane.

Series [3] can be described thus: Brain homogenate binding by rapid equilibrium dialysis. To be noted: 37° C.; for Mouse Brain Unbound (Fu, %): 5 μM, 4 hours, dilution factor 5; for fraction unbound at 4 h, 5 μM: CD1, pH 7.4, mouse brain homogenate, dilution factor 5, read-out: Mouse Brain Unbound (Fu, %). The format is in vitro ADME. As for the experimental part: as §1, §2, §3, §4
The unbound fraction in brain (Fub, brain) was calculated from the measured value in brain homogenate (Fub, meas), taking into account the dilution factor used in preparing the brain homogenate:
where D=dilution factor (here 5).

A further series deals with human Sortilin (Homo sapiens (Human), UniProt Q99523). In words: Creoptix (GCI) binding kinetics, human Sortilin. To be noted: screened at 1 μM. As for the experimental part:
(§5) A protein, bound to a surface, is bathed in a solution containing potential ligands giving rise to binding kinetics to generate Kon and Koff rates, as well as a Kd.
(§6) All buffers described were filtered using a 0.2 μm filter (Product number: 10300461, Nalgene) and degassed for 15 minutes prior to use.
(§7) A flow cell temperature of 25 degrees Celsius was used throughout the experiment.
(§8) A 4PCH chip was conditioned across all flow cells using 0.2× concentration running buffer (running buffer composition: 1×HBS-N, pH 7.4, 3.4 mM EDTA, 1% DMSO) using pre-set conditioning wizard (WAVE control software) injecting: 0.1 M borate, 1 M NaCl (pH 9) followed by three start-up injections of 0.2× running buffer.
(§9) A buffer exchange was performed and 1× running buffer (1×HBS-N, pH 7.4, 3.4 mM EDTA, 1% DMSO) used during the immobilisation procedure:
(§10) An initial injection of EDC/NHS (mixed in 1:1 ratio) was performed across all 4-flow cells to activate the surface for amine coupling of ligands.
Recombinant Sortilin aliquots were thawed quickly by hand and centrifuged at 13,300 rpm for 10 minutes. A 10 μg/ml protein solution was then made in pH 5.0 acetate and injected once for 20 minutes over flow-cells 2, 3 and 4 for human, human (flow cells 2 & 3), and mouse Sortilin respectively followed by a 60 second dissociation period.
A final 7-minute passivation injection of 50 mM tris was used across all flow cells.
A flow rate of 10 μl/min was used for all conditioning and immobilisation cycles.
Compounds were screened at 1 μM using the in-built ‘intermediate binders’ settings: 100 ul/min, 45 s baseline, 25 s association, 300 s dissociation, with blanks every 5th sample and a DMSO correction (1.5% DMSO at the start and end of the experiment as well as every 20 cycles. An acquisition rate of 10 Hz was used throughout the experiment.
Compounds were screened at a final assay concentration of 1 μM and a final DMSO concentration was 1%. To achieve this, compounds were diluted in DMSO from 10 mM stocks to 100 μM (100×final assay concentration) then diluted 1:100 in running buffer which contained no DMSO to establish a final assay concentration of compound of 1 μM and a final DMSO concentration of 1% [DMSO].
Compounds and DMSO were mixed by plate shaking at 1000 rpm for 60 seconds using a Bioshake instrument.
A flow rate of 100 μl/min was used throughout the experiment.
(§11) Data was evaluated using the RAPID kinetic analysis tool in the GCI WAVE_control software with data fitted using a standard 1:1 kinetic BioModel.

The next series has as its target mouse Sortilin (Mus musculus (Mouse), UniProt Q6PHU5). In words: Creoptix (GCI) binding kinetics, mouse Sortilin. To be noted: screened at 1 μM. Here is the method: as §5, §6, §7, §8, §9, §10
Recombinant Sortilin aliquots were thawed quickly by hand and centrifuged at 13,300 rpm for 10 minutes. […]
as §11

Setting [4] is: brain, Brain Tissue Concentration (ng/g) T = 1 hour.
[5] abbreviates: brain, Unbound Brain Concentration (ng/mL) T = 1 hour.
Setting [6] is: plasma, Total Plasma Concentration (ng/ml) T = 1 hour.
[7] abbreviates: plasma, Unbound Plasma Concentration (ng/mL) T = 1 hour.

Structures can show the parent of a compound that is named as a salt.

Sequence of human Sortilin (Q99523 78-755): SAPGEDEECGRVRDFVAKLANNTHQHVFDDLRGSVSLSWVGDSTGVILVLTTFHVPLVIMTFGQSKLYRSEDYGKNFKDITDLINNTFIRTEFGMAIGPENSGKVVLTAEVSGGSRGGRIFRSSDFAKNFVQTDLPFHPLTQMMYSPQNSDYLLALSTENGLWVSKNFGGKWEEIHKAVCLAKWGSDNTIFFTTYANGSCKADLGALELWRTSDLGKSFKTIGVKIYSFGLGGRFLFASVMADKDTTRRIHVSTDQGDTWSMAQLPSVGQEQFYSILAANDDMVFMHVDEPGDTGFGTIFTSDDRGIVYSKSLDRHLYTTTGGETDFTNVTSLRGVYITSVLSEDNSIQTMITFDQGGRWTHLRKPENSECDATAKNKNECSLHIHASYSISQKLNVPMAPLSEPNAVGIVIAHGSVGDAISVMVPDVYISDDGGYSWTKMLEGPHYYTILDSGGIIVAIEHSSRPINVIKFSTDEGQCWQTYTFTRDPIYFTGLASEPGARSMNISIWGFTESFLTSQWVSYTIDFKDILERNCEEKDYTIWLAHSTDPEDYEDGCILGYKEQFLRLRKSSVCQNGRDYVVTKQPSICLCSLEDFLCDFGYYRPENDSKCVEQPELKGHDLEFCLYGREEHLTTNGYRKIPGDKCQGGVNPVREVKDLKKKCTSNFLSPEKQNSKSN
Sequence of mouse Sortilin (Q6PHU5 76-753): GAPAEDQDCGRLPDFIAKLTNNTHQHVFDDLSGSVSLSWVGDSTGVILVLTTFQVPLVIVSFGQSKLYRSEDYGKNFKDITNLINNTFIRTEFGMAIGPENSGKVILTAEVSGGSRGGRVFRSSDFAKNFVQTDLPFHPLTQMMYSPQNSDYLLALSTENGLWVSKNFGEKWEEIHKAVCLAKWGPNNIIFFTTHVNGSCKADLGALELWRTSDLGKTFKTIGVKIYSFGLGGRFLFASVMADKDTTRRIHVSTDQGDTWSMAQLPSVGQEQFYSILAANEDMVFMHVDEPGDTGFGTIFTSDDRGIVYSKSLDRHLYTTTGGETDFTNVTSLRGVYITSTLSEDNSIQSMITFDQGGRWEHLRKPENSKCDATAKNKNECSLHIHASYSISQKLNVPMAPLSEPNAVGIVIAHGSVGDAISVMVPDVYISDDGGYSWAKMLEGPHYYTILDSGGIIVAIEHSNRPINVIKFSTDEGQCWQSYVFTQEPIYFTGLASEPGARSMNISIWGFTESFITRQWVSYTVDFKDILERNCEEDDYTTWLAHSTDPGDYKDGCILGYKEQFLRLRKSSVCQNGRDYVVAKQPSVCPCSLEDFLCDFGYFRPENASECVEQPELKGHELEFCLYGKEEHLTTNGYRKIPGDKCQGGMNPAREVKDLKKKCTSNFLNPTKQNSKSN
Method for in vivo: as §12, §13, §14, §15, §16, §17

For `Cc1cccc(NC(=O)c2ccc(C(F)(F)F)cc2C(=O)O)n1` [Comparative Example 1, reference compound], the Kp uu at 1 h in the series “in vivo” was less than 0.1. In addition, the concentration at 1 h in series [1] (setting [4]) was found to be 0.9 ng/g; in series [1] (setting [5]), 0.2 ng/mL; in series [1] (setting [6]) it was 393 ng/mL; in series [1] (setting [7]), 27 ng/mL. Also, the “blood brain barrier penetration” value in series [1] was “did not show a blood brain barrier penetration”.

Take `COc1cccc(CN[C@@H](CCC(C)(C)C)C(=O)O)c1.Cl` [Example 5, (2S)-2-{[(3-methoxyphenyl)methyl]amino}-5,5-dimethylhexanoic acid]: at h-Sortilin, the IC50 is 560 nM. Besides, the “Mouse Plasma Unbound (Fu, %)” value in series [2] worked out at 3.3%. In addition, the fraction unbound at 4 h, 5 μM came out at 0.033 in series [2] and 0.291 in series [3]. For the same compound, the “Mouse Brain Unbound (Fu, %)” value in series [3] was found to be 29.1%. Moreover, the Kd on human Sortilin (Free acid) was 1930 nM; on human Sortilin (Ms salt), 423 nM; on human Sortilin (MsOH salt) it was 396 nM; on mouse Sortilin (HCl salt), 1020 nM. For the same compound, the Kp uu at 1 h in series [1] is greater than 0.1. Besides, the concentration at 1 h in series [1] (setting [4]) came to 48.5 ng/g; in series [1] (setting [5]), 14 ng/mL; in series [1] (setting [6]) it was 3560 ng/mL; in series [1] (setting [7]), 117 ng/mL. Further, the “blood brain barrier penetration” value in series [1] is on record as “permeate the blood brain barrier”.

The compound `Cn1ccc2c(CN[C@@H](CCC(C)(C)C)C(=O)O)cccc21` [Example 6, (S)-5,5-dimethyl-2-(((1-methyl-1H-indol-4-yl)methyl)amino)hexanoic acid hydrochloride] showed an IC50 on h-Sortilin of 330 nM. Also, in series [2], the “Mouse Plasma Unbound (Fu, %)” value stood at 5.8%. For the same compound, the fraction unbound at 4 h, 5 μM was found to be 0.058 in series [2] and 0.229 in series [3]. Moreover, in series [3], the “Mouse Brain Unbound (Fu, %)” value is recorded as 22.9%. In addition, the Kp uu at 1 h in series [1] was greater than 0.1. Moreover, the concentration at 1 h in series [1] (setting [4]) turned out to be 6.25 ng/g; in series [1] (setting [5]) it was 1.4 ng/mL; in series [1] (setting [6]), 138 ng/mL; in series [1] (setting [7]), 8 ng/mL. Besides, in series [1], the “blood brain barrier penetration” value is “permeate the blood brain barrier”.

`CC(C)(C)CC[C@H](NCc1cnc2ccccc2c1)C(=O)O` [Example 35, (2S)-5,5-dimethyl-2-{[(quinolin-3-yl)methyl]amino}hexanoic acid] showed an IC50 on h-Sortilin of 650 nM. Also, the Kd on human Sortilin (Free acid) worked out at 895 nM; at mouse Sortilin (Free acid), 1050 nM.

The compound `Cc1ccc(CN[C@@H](CCC(C)(C)C)C(=O)O)cc1Cl` [Example 129, (2S)-2-{[(3-chloro-4-methylphenyl)methyl]amino}-5,5-dimethylhexanoic acid] registered an IC50 on h-Sortilin of 390 nM. For the same compound, the Kd on human Sortilin (Ms salt) was 512 nM.

The compound `Cc1ccc(CN[C@@H](CCC(C)(C)C)C(=O)O)c2ccn(C)c12` [Example 131, (S)-2-(((1,7-dimethyl-1H-indol-4-yl)methyl)amino)-5,5-dimethylhexanoic acid, Mesylic acid] yielded a 50% inhibitory concentration (IC50) on h-Sortilin of 380 nM. Moreover, the dissociation constant (Kd) on human Sortilin (Free acid) stood at 97.6 nM.

As to `Cc1ccc(CN[C@@H](CCC(C)(C)C)C(=O)O)cc1C` [Example 137, (S)-2-((3,4-dimethylbenzyl)amino)-5,5-dimethylhexanoic acid, Mesylic acid], on h-Sortilin, the IC50 turned out to be 740 nM. This compound showed a Kd on human Sortilin (Free acid) of 208 nM.

`COc1ccc(F)c(CN[C@@H](CCC(C)(C)C)C(=O)O)c1` [Example 140, (2S)-2-{[(2-fluoro-5-methoxyphenyl)methyl]amino}-5,5-dimethylhexanoic acid]: the concentration for half-maximal inhibition (IC50) on h-Sortilin amounted to 850 nM. The Kd at human Sortilin (Free acid) was found to be 456 nM.

`COc1cncc(CN[C@@H](CCC(C)(C)C)C(=O)O)c1` [Example 144, (2S)-2-{[(5-methoxypyridin-3-yl)methyl]amino}-5,5-dimethylhexanoic acid]: on h-Sortilin, the IC50 was 430 nM. In addition, the dissociation constant (Kd) on human Sortilin (Free acid) amounted to 310 nM.

These data come from US20250268854A1, “2-AMINO-5,5-DIMETHYLHEXANOIC ACID DERIVATIVES AS SORTILIN MODULATORS FOR USE IN THE TREATMENT OF DISEASE OF THE CENTRAL NERVOUS SYSTEM” (c/o Vesper Bio ApS, priority 2021, published 2025).
